Row | SMILES | melting point [°C]
1 | CC(C)c1cc(-c2cccc(C3=Nc4cc(OCC(F)(F)F)c(C(F)(F)F)cc4NC(=O)C3)c2)ccn1 [Example 275, 4-[3-(2-Isopropyl-pyridin-4-yl)-phenyl]-7-(2,2,2-trifluoro-ethoxy)-8-trifluoromethyl-1,3-dihydro-benzo[b][1,4]diazepin-2-one] | 202
2 | CC(C)Cc1cc(-c2cccc(C3=Nc4cc(Cl)c(C(F)(F)F)cc4NC(=O)C3)c2)ccn1 [Example 278, 7-Chloro-4-[3-(2-isobutyl-pyridin-4-yl)-phenyl]-8-trifluoromethyl-1,3-dihydro benzo[b][1,4]diazepin-2-one] | 213
3 | CC(C)Cc1cc(-c2cccc(C3=Nc4cc(Cl)c(Cl)cc4NC(=O)C3)c2)ccn1 [Example 279, 7,8-Dichloro-4-[3-(2-isobutyl-pyridin-4-yl)-phenyl]-1,3-dihydro-benzo[b][1,4]diazepin-2-one] | 204
4 | Cc1ncccc1-c1cccc(C2=Nc3ccc(-n4cccc4)cc3NC(=O)C2)c1 [Example 289, 4-[3-(2-Methyl-pyridin-3-yl)-phenyl]-8-pyrrol-1-yl-1,3-dihydro-benzo[b][1,4]diazepin-2-one] | 215 to 216
5 | Cc1cc2c(cc1Cl)NC(=O)CC(c1ccnc(-c3ccncc3)c1)=N2 [Example 293, 4-[2,4′]Bipyridinyl-4-yl-8-chloro-7-methyl-1,3-dihydro-benzo[b][1,4]diazepin-2-one] | 233 to 235
6 | Cc1cc(-c2cc(C3=Nc4cc(C)c(Cl)cc4NC(=O)C3)ccn2)ccn1 [Example 295, 8-Chloro-7-methyl-4-(2′-methyl-[2,4′]bipyridinyl-4-yl)-1,3-dihydro-benzo[b][1,4]diazepin-2-one] | 225 to 227
7 | CN(C)c1cc2c(cc1C(F)(F)F)NC(=O)CC(c1cccc(-c3ccncn3)c1)=N2 [Example 298, 7-Dimethylamino-4-(3-pyrimidin-4-yl-phenyl)-8-trifluoromethyl-1,3-dihydro-benzo[b][1,4]diazepin-2-one] | 209 to 210
8 | O=C1CC(c2cccc(-c3ccncn3)c2)=Nc2cc(Cl)c(Cl)cc2N1 [Example 300, 7,8-Dichloro-4-(3-pyrimidin-4-yl-phenyl)-1,3-dihydro-benzo[b][1,4]diazepin-2-one] | 234 to 237
9 | Cc1nccc(-c2cccc(C3=Nc4cc(C)c(C(F)(F)F)cc4NC(=O)C3)c2)n1 [Example 301, 7-Methyl-4-[3-(2-methyl-pyrimidin-4-yl)-phenyl]-8-trifluoromethyl-1,3-dihydro-benzo[b][1,4]diazepin-2-one] | 230 to 232
10 | Cc1nccc(-c2cccc(C3=Nc4ccc(Cl)cc4NC(=O)C3)c2)n1 [Example 305, 8-Chloro-4-[3-(2-methyl-pyrimidin-4-yl)-phenyl]-1,3-dihydro-benzo[b][1,4]diazepin-2-one] | 215 to 220
11 | Cc1nccc(-c2cccc(C3=Nc4cc(Cl)c(Cl)cc4NC(=O)C3)c2)n1 [Example 306, 7,8-Dichloro-4-[3-(2-methyl-pyrimidin-4-yl)-phenyl]-1,3-dihydro-benzo[b][1,4]diazepin-2-one] | 241 to 242
12 | Cc1cc(-c2cccc(C3=Nc4cc(C)c(C(F)(F)F)cc4NC(=O)C3)c2)ncn1 [Example 308, 7-Methyl-4-[3-(6-methyl-pyrimidin-4-yl)-phenyl]-8-trifluoromethyl-1,3-dihydro-benzo[b][1,4]diazepin-2-one] | 227 to 230
13 | Cc1cc(-c2cccc(C3=Nc4cc(C)c(Cl)cc4NC(=O)C3)c2)ncn1 [Example 309, 8-Chloro-7-methyl-4-[3-(6-methyl-pyrimidin-4-yl)-phenyl]-1,3-dihydro-benzo[b][1,4]diazepin-2-one] | 226 to 227
14 | Cc1cc(-c2cccc(C3=Nc4ccc(-n5cccc5)cc4NC(=O)C3)c2)ncn1 [Example 314, 4-[3-(6-Methyl-pyrimidin-4-yl)-phenyl]-8-pyrrol-1-yl-1,3-dihydro-benzo[b][1,4]diazepin-2-one] | 242 to 243
15 | Cc1cc(-c2cccc(C3=Nc4cc(C)c(Cl)cc4NC(=O)C3)c2)nc(N)n1 [Example 316, 4-[3-(2-Amino-6-methyl-pyrimidin-4-yl)-phenyl]-8-chloro-7-methyl-1,3-dihydro-benzo[b][1,4]diazepin-2-one] | 242 to 243

Further lines, results first:

Row | melting point [°C] | SMILES
16 | 217 | CCOc1cc2c(cc1C(F)(F)F)NC(=O)CC(c1cccc(-c3ccnc(C(C)C)c3)c1)=N2 [Example 276, 4-[3-(2-Isopropyl-pyridin-4-yl)-phenyl]-7-ethoxy-8-trifluoromethyl-1,3-dihydro-benzo[b][1,4]diazepin-2-one]
17 | 198 | Cc1cc2c(cc1Cl)NC(=O)CC(c1cccc(-c3ccnc(CC(C)C)c3)c1)=N2 [Example 277, 8-Chloro-4-[3-(2-isobutyl-pyridin-4-yl)-phenyl]-7-methyl-1,3-dihydro-benzo[b][1,4]diazepin-2-one]
18 | 203 | CCOc1cc2c(cc1C(F)(F)F)NC(=O)CC(c1cccc(-c3ccnc(CC(C)C)c3)c1)=N2 [Example 280, 4-[3-(2-Isobutyl-pyridin-4-yl)-phenyl]-7-ethoxy-8-trifluoromethyl-1,3-dihydro-benzo[b][1,4]diazepin-2-one]
19 | 181 | CC(C)Cc1cc(-c2cccc(C3=Nc4ccc(C(F)(F)F)cc4NC(=O)C3)c2)ccn1 [Example 281, 4-[3-(2-Isobutyl-pyridin-4-yl)-phenyl]-8-trifluoromethyl-1,3-dihydro benzo[b][1,4]diazepin-2-one]
20 | 234 | Cc1cc2c(cc1Cl)NC(=O)CC(c1cccc(-c3ccnc(CO)c3)c1)=N2 [Example 282, 8-Chloro-4-[3-(2-hydroxymethyl-pyridin-4-yl)-phenyl]-7-methyl-1,3-dihydro-benzo[b][1,4]diazepin-2-one]
21 | 199 | O=C1CC(c2cccc(-c3ccnc(CO)c3)c2)=Nc2cc(Cl)c(C(F)(F)F)cc2N1 [Example 284, 7-Chloro-4-[3-(2-hydroxymethyl-pyridin-4-yl)-phenyl]-8-trifluoromethyl-1,3-dihydro benzo[b][1,4]diazepin-2-one]
22 | 224 | O=C1CC(c2cccc(-c3ccnc(CO)c3)c2)=Nc2cc(Cl)c(Cl)cc2N1 [Example 285, 7,8-Dichloro-4-[3-(2-hydroxymethyl-pyridin-4-yl)-phenyl]-1,3-dihydro-benzo[b][1,4]diazepin-2-one]
23 | 201 | O=C1CC(c2cccc(-c3ccnc(CO)c3)c2)=Nc2cc(OCC(F)(F)F)c(C(F)(F)F)cc2N1 [Example 286, 4-[3-(2-Hydroxymethyl-pyridin-4-yl)-phenyl]-7-(2,2,2-trifluoro-ethoxy)-8-trifluoromethyl-1,3-dihydro-benzo[b][1,4]diazepin-2-one]
24 | 216 | CCOc1cc2c(cc1C(F)(F)F)NC(=O)CC(c1cccc(-c3ccnc(CO)c3)c1)=N2 [Example 287, 4-[3-(2-Hydroxymethyl-pyridin-4-yl)-phenyl]-7-ethoxy-8-trifluoromethyl-1,3-dihydro-benzo[b][1,4]diazepin-2-one]
25 | 229 to 231 | Cc1cc2c(cc1Cl)NC(=O)CC(c1ccnc(-c3cccnc3)c1)=N2 [Example 291, 4-[2,3′]Bipyridinyl-4-yl-8-chloro-7-methyl-1,3-dihydro-benzo[b][1,4]diazepin-2-one]
26 | 224 to 226 | Cc1cc2c(cc1C(F)(F)F)NC(=O)CC(c1ccnc(-c3ccncc3)c1)=N2 [Example 292, 4-[2,4′]Bipyridinyl-4-yl-7-methyl-8-trifluoromethyl-1,3-dihydro-benzo[b][1,4]diazepin-2-one]
27 | 242 to 247 | Cc1cc2c(cc1Cl)NC(=O)CC(c1cccc(-c3ccncn3)c1)=N2 [Example 297, 8-Chloro-7-methyl-4-(3-pyrimidin-4-yl-phenyl)-1,3-dihydro-benzo[b][1,4]diazepin-2-one]
28 | 220 to 233 | O=C1CC(c2cccc(-c3ccncn3)c2)=Nc2ccc(Cl)cc2N1 [Example 299, 8-Chloro-4-(3-pyrimidin-4-yl-phenyl)-1,3-dihydro-benzo[b][1,4]diazepin-2-one]
29 | 212 to 226 | Cc1nccc(-c2cccc(C3=Nc4ccc(C(F)(F)F)cc4NC(=O)C3)c2)n1 [Example 304, 4-[3-(2-Methyl-pyrimidin-4-yl)-phenyl]-8-trifluoromethyl-1,3-dihydro-benzo[b][1,4]diazepin-2-one]
30 | 209 to 212 | Cc1nccc(-c2cccc(C3=Nc4ccc(-n5cccc5)cc4NC(=O)C3)c2)n1 [Example 307, 4-[3-(2-Methyl-pyrimidin-4-yl)-phenyl]-8-pyrrol-1-yl-1,3-dihydro-benzo[b][1,4]diazepin-2-one]
31 | 232 to 236 | Cc1cc(-c2cccc(C3=Nc4cc(N(C)C)c(C(F)(F)F)cc4NC(=O)C3)c2)ncn1 [Example 310, 7-Dimethylamino-4-[3-(6-methyl-pyrimidin-4-yl)-phenyl]-8-trifluoromethyl-1,3-dihydro-benzo[b][1,4]diazepin-2-one]
32 | 199 to 200 | Cc1cc(-c2cccc(C3=Nc4ccc(Cl)cc4NC(=O)C3)c2)ncn1 [Example 312, 8-Chloro-4-[3-(6-methyl-pyrimidin-4-yl)-phenyl]-1,3-dihydro-benzo[b][1,4]diazepin-2-one]
33 | 220 to 222 | Cc1cc(-c2cccc(C3=Nc4cc(Cl)c(Cl)cc4NC(=O)C3)c2)ncn1 [Example 313, 7,8-Dichloro-4-[3-(6-methyl-pyrimidin-4-yl)-phenyl]-1,3-dihydro-benzo[b][1,4]diazepin-2-one]
34 | 248 to 250 | Cc1cc(-c2cccc(C3=Nc4cc(C)c(C(F)(F)F)cc4NC(=O)C3)c2)nc(N)n1 [Example 315, 4-[3-(2-Amino-6-methyl-pyrimidin-4-yl)-phenyl]-7-methyl-8-trifluoromethyl-1,3-dihydro-benzo[b][1,4]diazepin-2-one]
35 | 250 to 253 | Cc1cc(-c2cccc(C3=Nc4cc(N(C)C)c(C(F)(F)F)cc4NC(=O)C3)c2)nc(N)n1 [Example 317, 4-[3-(2-Amino-6-methyl-pyrimidin-4-yl)-phenyl]-7-dimethylamino-8-trifluoromethyl-1,3-dihydro-benzo[b][1,4]diazepin-2-one]
